Where two headings read alike, the source gives them in different places.
Assays:
[1] = system: clinical H. pylori strain; test: Drug resistance testing of clinical specimens on characteristic culture medium (discoloration after 36 hours); type: cell-based, Helicobacter pylori
Procedure: (§1) The characteristic culture media (A, B, C, D, E) are cultivated at a constant temperature of 37° C. for 36 hours in a three gas incubator. The characteristic culture media are removed and placed in a natural environment for 30 minutes to observe whether there are discolorations at the point of the culture medium where the specimen is dropped in. […] Another 100 μL of the specimen is taken and coated on Columbia solid culture medium and cultivated in a three gas incubator at a constant temperature of 37° C. for 3 days to 5 days. The number of colonies on the plate is counted to determine the initial inoculation amount. The micro dilution method is adopted to test the MIC of clinical specimen H. pylori, the test is meaningful only when there is no bacterial growth in the negative control well without bacteria and there is bacterial growth in the positive well with bacteria but without antibiotics.
(1) Transfer liquid preparation: after sterilization and cooling, BHI culture medium is added with 10% calf serum, followed by 30% glycerol to prepare H. pylori preservation solution. On this basis, 1% H. pylori selective additive is added to prepare the transfer liquid. 1 mL of transfer solution is taken into a sterile EP tube, and 6-8 sterilized small steel balls are poured into the EP tube for the subsequent use.
(3) Specimen acquisition: a biopsy tissue group is obtained from the gastric antrum and a small curvature side of the gastric body through a gastroscopy biopsy passage and placed into an EP tube (strictly sterile operation). The biopsy tissue is placed on the ice surface and transferred as soon as possible (within 2 hours) to complete the subsequent steps.
(4) Preparation of bacterial solution containing tissue: the EP tube containing tissue is placed in a homogenizer at 300 hz and crushed for 5 minutes, transferred to another EP, centrifuged at 12000 rpm for 2 minutes, the supernatant is discarded, BHI is resuspended to 200 μL, and a bacterial suspension is prepared for the subsequent use.
(5) Inoculation of bacterial solution: 10 μL of bacterial solution is taken and added dropwise to the characteristic culture medium (5 pieces in total). The characteristic culture medium is removed after cultivating in a three gas incubator at 37° C. for 36 hours, and the results are determined after leaving for 30 minutes; another 100 μL is taken and coated onto Colombian culture medium for the traditional bacterial culture.

H. pylori [2] = test: Verification of resistance breakpoint: growth of laboratory strains on Columbia solid culture medium with added antibiotics, 72 hours; type: cell-based, Helicobacter pylori; conditions: for growth of sensitive strains: levofloxacin 0.5, clarithromycin 0.5, metronidazole 4, amoxicillin 0.5 μg/mL
Procedure: The plates are cooled and inverted for approximately 10 mL/piece, marked properly for the subsequent use.
(2) Preparation of bacterial solution: H. pylori grown in logarithmic phase on a solid plate is taken to prepare a bacterial suspension by using BHI. The concentration OD600 is adjusted to 0.3 (1×10^8 CFU/mL), diluted 10 times for the subsequent use.
(3) Inoculation of bacterial solution: 10 μL of bacterial solution is taken and added to Columbia culture medium and the results are determined after cultivating for 72 hours.
(4) Result determination: the minimum drug concentration for no growth of bacteria on the plate is the minimum inhibitory concentration of the bacteria against the drug.

[3] = system: clinical H. pylori strain; test: MIC of clinical H. pylori strains by micro dilution method; type: cell-based; conditions: Helicobacter pylori, 72 h
Procedure: as §1
H. pylori single colony grown on Colombian culture medium is taken (which is confirmed as H. pylori by urease, oxidase, catalase, and PCR testing of CagA gene, as illustrated in FIG. 13) and the bacteria are increased. During the preparation of MIC plates and bacterial solution, H. pylori with logarithmic growth phase is taken to prepare a bacterial suspension by using BHI. The concentration OD600 is adjusted to 0.3 (1×10^8 CFU/mL, diluted 10 times, 10 μL is taken and added to wells 1-8 (with a bacterial solution concentration of approximately 1.0×10^6 CFU/mL per well, cultivated for 72 hours to determine the results.

H. pylori [4] = conditions: bacterial count 1×10^6 CFU/mL; cited from earlier work
H. pylori [5] = test: Drug resistance testing of laboratory strains on characteristic culture medium (discoloration after 36 hours); type: cell-based, Helicobacter pylori
Procedure: as §1, with “antibiotics. […] The results are recorded and whether the micro dilution method and characteristic culture medium are consistent with each other in evaluating the drug resistance of clinical H. pylori strains is compared. […]” for “antibiotics.”
(2) Inoculation of bacterial solution: 10 μL bacterial solution is taken and added dropwise onto a characteristic culture medium with 5 pieces (ABCDE) in total.
(3) Culture: all plates are moved to a three gas incubator and cultivated at 37° C. for 36 hours. After being taken out and placed in a natural environment for 30 minutes, whether the bacteria have resistance is determined based on the discoloration of the characteristic culture medium.

[6] = clinical H. pylori strain FY-31
[7] = clinical H. pylori strain FY-43
[8] = clinical H. pylori strain FY-47
[9] = clinical H. pylori strain FY-52
[10] = clinical strain FY-31, approximately 1.0×10^6 CFU/mL per well, 72 hours, read-out: MIC
[11] = clinical strain FY-47, approximately 1.0×10^6 CFU/mL per well, 72 hours, read-out: MIC
[12] = clinical strain FY-52, approximately 1.0×10^6 CFU/mL per well, 72 hours, read-out: MIC

CC1(C)S[C@@H]2[C@H](NC(=O)[C@H](N)c3ccc(O)cc3)C(=O)N2[C@H]1C(=O)O [Amoxicillin, amoxicillin]
sensitive: drug resistance determined on characteristic culture medium [1, 6] | drug resistance determined on characteristic culture medium [1, 7] | drug resistance determined on characteristic culture medium [1, 8] | drug resistance determined on characteristic culture medium [1, 9] | drug resistance determined by discoloration of characteristic culture medium (H. pylori [5]; strain 159, 1×10^6 CFU/mL)
−: growth of bacterial (H. pylori [2]; strain 286, antibiotic 0.0313 μg/mL)
does not develop resistance: drug resistance determined by discoloration of characteristic culture medium (H. pylori [5]; strain G27, 1×10^6 CFU/mL)
< 0.0312 µg/mL: MIC [3, 12]
have developed resistance: drug resistance determined by discoloration of characteristic culture medium (H. pylori [5]; strain 286, 1×10^6 CFU/mL) | drug resistance determined by discoloration of characteristic culture medium (H. pylori [5]; strain 287, 1×10^6 CFU/mL) | drug resistance determined by discoloration of characteristic culture medium (H. pylori [5]; strain 289, 1×10^6 CFU/mL)
0.5 µg/mL: resistance breakpoints of H. pylori according to CLSI guidelines (H. pylori [4])
+: growth of bacterial (H. pylori [2]; strain 159, antibiotic 0.0313 μg/mL) | growth of bacterial (H. pylori [2]; strain 161, antibiotic 0.0313 μg/mL) | growth of bacterial (H. pylori [2]; strain 162, antibiotic 0.0313 μg/mL) | growth of bacterial (H. pylori [2]; strain 163, antibiotic 0.0313 μg/mL) | growth of bacterial (H. pylori [2]; strain 287, antibiotic 0.0313 μg/mL) | growth of bacterial (H. pylori [2]; strain 289, antibiotic 0.0313 μg/mL) | growth of bacterial (H. pylori [2]; strain 290, antibiotic 0.0313 μg/mL) | growth of bacterial (H. pylori [2]; strain 26695, antibiotic 0.0313 μg/mL) | growth of bacterial (H. pylori [2]; strain G27, antibiotic 0.0313 μg/mL)
no sensitive strain grows: growth of sensitive strains (H. pylori [2])
0.0312 µg/mL: MIC [3, 10] | MIC ([3]; clinical strain FY-43, approximately 1.0×10^6 CFU/mL per well, 72 hours, read-out: MIC) | MIC [3, 11]

CC[C@H]1OC(=O)[C@H](C)[C@@H](O[C@H]2C[C@@](C)(OC)[C@@H](O)[C@H](C)O2)[C@H](C)[C@@H](O[C@@H]2O[C@H](C)C[C@H](N(C)C)[C@H]2O)[C@](C)(OC)C[C@@H](C)C(=O)[C@H](C)[C@@H](O)[C@]1(C)O [Clarithromycin, clarithromycin]
0.25 µg/mL: MIC [3, 12]
developed resistance: drug resistance determined by discoloration of characteristic culture medium (H. pylori [5]; strain 159, 1×10^6 CFU/mL)
no sensitive strain grows: growth of sensitive strains (H. pylori [2])
0.5 µg/mL: optimal concentration for adding antibiotics (H. pylori [2]; conclusion of breakpoint verification)
0.125 µg/mL: MIC [3]
sensitive: drug resistance determined on characteristic culture medium [1, 6] | drug resistance determined on characteristic culture medium [1, 7] | drug resistance determined on characteristic culture medium [1, 8] | drug resistance determined on characteristic culture medium [1, 9]
have developed resistance: drug resistance determined by discoloration of characteristic culture medium (H. pylori [5]; strain 286, 1×10^6 CFU/mL) | drug resistance determined by discoloration of characteristic culture medium (H. pylori [5]; strain 287, 1×10^6 CFU/mL) | drug resistance determined by discoloration of characteristic culture medium (H. pylori [5]; strain 289, 1×10^6 CFU/mL)
+: growth of bacterial (H. pylori [2]; strain 159, antibiotic 0.25 μg/mL) | growth of bacterial (H. pylori [2]; strain 159, antibiotic 0.5 μg/mL) | growth of bacterial (H. pylori [2]; strain 161, antibiotic 0.25 μg/mL) | growth of bacterial (H. pylori [2]; strain 161, antibiotic 0.5 μg/mL) | growth of bacterial (H. pylori [2]; strain 162, antibiotic 0.25 μg/mL) | growth of bacterial (H. pylori [2]; strain 162, antibiotic 0.5 μg/mL) | growth of bacterial (H. pylori [2]; strain 286, antibiotic 0.25 μg/mL) | growth of bacterial (H. pylori [2]; strain 286, antibiotic 0.5 μg/mL) | growth of bacterial (H. pylori [2]; strain 287, antibiotic 0.25 μg/mL) | growth of bacterial (H. pylori [2]; strain 287, antibiotic 0.5 μg/mL) | growth of bacterial (H. pylori [2]; strain 289, antibiotic 0.25 μg/mL) | growth of bacterial (H. pylori [2]; strain 289, antibiotic 0.5 μg/mL) | growth of bacterial (H. pylori [2]; strain 289, antibiotic 1 μg/mL) | growth of bacterial (H. pylori [2]; strain 290, antibiotic 0.25 μg/mL) | growth of bacterial (H. pylori [2]; strain 290, antibiotic 0.5 μg/mL) | growth of bacterial (H. pylori [2]; strain 26695, antibiotic 0.25 μg/mL) | growth of bacterial (H. pylori [2]; strain G27, antibiotic 0.25 μg/mL)
−: growth of bacterial (H. pylori [2]; strain 159, antibiotic 1 μg/mL) | growth of bacterial (H. pylori [2]; strain 161, antibiotic 1 μg/mL) | growth of bacterial (H. pylori [2]; strain 162, antibiotic 1 μg/mL) | growth of bacterial (H. pylori [2]; strain 163, antibiotic 0.25 μg/mL) | growth of bacterial (H. pylori [2]; strain 163, antibiotic 0.5 μg/mL) | growth of bacterial (H. pylori [2]; strain 163, antibiotic 1 μg/mL) | growth of bacterial (H. pylori [2]; strain 286, antibiotic 1 μg/mL) | growth of bacterial (H. pylori [2]; strain 287, antibiotic 1 μg/mL) | growth of bacterial (H. pylori [2]; strain 290, antibiotic 1 μg/mL) | growth of bacterial (H. pylori [2]; strain 26695, antibiotic 0.5 μg/mL) | growth of bacterial (H. pylori [2]; strain 26695, antibiotic 1 μg/mL) | growth of bacterial (H. pylori [2]; strain G27, antibiotic 0.5 μg/mL) | growth of bacterial (H. pylori [2]; strain G27, antibiotic 1 μg/mL)
does not develop resistance: drug resistance determined by discoloration of characteristic culture medium (H. pylori [5]; strain G27, 1×10^6 CFU/mL)
2 µg/mL: resistance breakpoints of H. pylori according to CLSI guidelines (H. pylori [4])
0.0625 µg/mL: MIC [3, 10] | MIC [3, 11]
